Assay results from PubChem BioAssay AID652241 (Broad Institute, 2013).
Inconclusive results are not listed. Activity calls are given as the source filed them.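 Rule for the calls: active = fitted curve reaches activity 50 in the expected rising direction at or below the top valid tested dose; inconclusive = no clear call, values can overlap the other calls; inactive = activity in the wrong direction, and the rest.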

molecular target: Virion infectivity factor (Human immunodeficiency virus type 1 group M subtype B (isolate BH10)) + Virion infectivity factor (Human immunodeficiency virus type 1 group M subtype B (isolate BRU/LAI)) + Virion infectivity factor (Human immunodeficiency virus type 1 group M subtype B (isolate PCV12)) + Virion infectivity factor (Human immunodeficiency virus type 1 group M subtype B (isolate HXB2)) (UniProt P69720+P69721+P69722+P69723); test: Vif multimerization inhibitor potency, dose response, imaging, HEK293T, cherry-picks (AID 652241); settings: 24 h;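 note: imaged cell signal that rises when Vif self-association is disrupted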
Sequence (P69720 whole entry, looked up): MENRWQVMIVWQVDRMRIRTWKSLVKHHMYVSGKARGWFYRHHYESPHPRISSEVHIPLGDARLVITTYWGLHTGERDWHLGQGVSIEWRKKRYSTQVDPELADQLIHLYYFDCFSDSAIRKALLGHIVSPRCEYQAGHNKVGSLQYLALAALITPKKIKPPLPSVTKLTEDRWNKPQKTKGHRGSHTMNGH
Sequence (P69721 whole entry, looked up): as the sequence (P69720 whole entry, looked up) above
Sequence (P69722 whole entry, looked up): as the sequence (P69720 whole entry, looked up) above
Sequence (P69723 whole entry, looked up): as the sequence (P69720 whole entry, looked up) above

| Compound | AC50 |
| --- | --- |
| COc1ccc(-c2ccc3c(N)c(C(=O)c4ccc(OC)c(OC)c4)sc3n2)cc1 | > 19.5 µM (inactive) |
| CCOC(=O)c1[nH]c2c(c1C)C(=O)CC(c1ccco1)C2 (configuration not stated) | 5.79 µM |
| COc1ccc(-c2cc(N)n(S(=O)(=O)c3c(F)c(F)c(F)c(F)c3F)n2)cc1OC | 13.4 µM |
| COc1cccc(-c2cc(=O)c3cc(NC(=O)c4ccccc4)ccc3[nH]2)c1 | 5.04 µM |
| COC(=O)c1ccc(NCc2cc(O)ccc2O)cc1O | 10.9 µM |
| Cc1cc(NC(=O)CSc2nc3c(sc4ccccc43)c(=O)n2CCCN2CCOCC2)n[nH]1 | 7.05 µM |
| Cc1nnc2ccc(-c3ccc(NS(=O)(=O)c4ccc(F)cc4F)cc3)nn12 | > 19.5 µM (inactive) |
| CCOc1c(C(N)=O)c(-c2ccccc2)c2c(=O)[nH]c3ccccc3n12 | > 19.5 µM (inactive) |
| COc1ccc(CC(=O)Nc2ccc(-c3noc(-c4cc(OC)c(OC)c(OC)c4)n3)cc2)cc1 | 13 µM |
| Oc1ccc(-c2nc(-c3ccc(O)c(O)c3)cs2)cc1 | 9.83 µM |
| COc1ccc(-c2cc(C(F)(F)F)nc(S(C)(=O)=O)n2)cc1OC | 8.03 µM |
| N#Cc1c(C(F)(F)F)cc(-c2ccco2)nc1SCc1ccncc1 | 15.8 µM |
| O=C(/C=C/c1ccccc1)Nc1ncn[nH]1 | 19.5 µM |
| Cc1ccc(C(c2cc(Cl)c3cccnc3c2O)N2CCN(C)CC2)cc1 (configuration not stated) | 5.7 µM |
| O=C(NC1(C(F)(F)F)Oc2ccc(Cl)cc2O1)N1CCC2(CC1)OCCO2 (configuration not stated) | 7.65 µM |
| Cc1cc(C)c2nc3sc(C(=O)N4CCOCC4)c(N)c3cc2c1 | 1.85 µM |
| CCOC(=O)c1cc(-c2ccccc2)sc1NC(=O)COC(=O)c1cccc(S(N)(=O)=O)c1 | 16.1 µM |
| COc1ccc(-c2cc(C(=O)Nc3cnn(Cc4ccccc4C)c3)no2)cc1OC | 16.3 µM |
| CCN1C(=O)c2cccc3c(S(=O)(=O)Nc4nc(C)cs4)ccc1c23 | 15.1 µM |
| CCOc1cc(/C=C2\CN(CC)C/C(=C\c3ccc(O)c(OCC)c3)C2=O)ccc1O | 7.26 µM |
| Cc1nnc2ccc(-c3ccc(NS(=O)(=O)c4ccc(Cl)s4)cc3)nn12 | 14.5 µM |
| c1ccc(-c2cn3nc(-c4ccccc4)c(-c4ccccc4)nc3n2)cc1 | 19.2 µM |

same assay, conditions: 24 h, at 19.5 µM (top of the series)

| Compound | activity, higher = inhibition |
| --- | --- |
| COc1ccc(OC)c(NC(=O)c2nc(-c3ccccc3)oc2C)c1 | inactive |
| CNC(=O)COc1ccccc1C(=O)Nc1ccc2c(c1)oc1ccccc12 | inactive |
| O=C(Nc1nn[nH]n1)c1cc(-c2ccc(Cl)c(Cl)c2Cl)nc2ccccc12 | inactive |
| CCOc1ccc(S(=O)(=O)NCc2ccccn2)cc1NC(=O)c1ccccc1 | inactive |
| O=C(c1cc(-c2ccccc2O)on1)N1CCCCCC1 | inactive |
| Cc1cc(NC(=O)CSc2nc3ccccc3c(=O)n2-c2ccccc2)no1 | inactive |
| CN1CCc2c(sc(NC(=O)c3cc(Cl)sc3Cl)c2C(N)=O)C1 | inactive |
| C/C=C/c1ccc(OCCNCc2ccccc2)c(OC)c1 | inactive |
| COc1cc(CNCc2ccccc2)c(Br)cc1OC1CCCC1 | inactive |
| CCc1cc2c(Sc3nc4ccccc4s3)ncnc2s1 | inactive |
| Cc1ccc(-n2c(SCC(=O)Nc3ccc4c(c3)OCO4)nnc2-c2cccs2)cc1 | inactive |
| CCCn1nnc(NC(=O)C(c2ccccc2)c2ccccc2)n1 | inactive |
| COc1ccc(Br)cc1C(=O)Nc1ccc(N2CCCC2)cc1 | inactive |
| COc1ccc(NC(=O)c2ccccc2NC(=O)CSc2ccc(C)cc2)cc1 | inactive |
| N#Cc1c(-c2ccccc2)cc(C2CC2)nc1SCC(=O)c1cccs1 | inactive |
| CC(C)CN(C(=O)COC(=O)CSc1ccccc1)c1c(N)n(Cc2ccccc2)c(=O)[nH]c1=O | inactive |
| O=C(Nc1cccc(-c2cc3ccccc3oc2=O)c1)c1ccc(Br)o1 | inactive |
| COc1ccc(C=C2CS(=O)(=O)CC(=Cc3ccc(OC)cc3)C2=O)cc1 | inactive |
| Cc1ccc(NC(=O)/C=C/C(=O)O)c(NC(=O)c2ccccc2)c1 | inactive |
| Cc1ccc2c(c1)N(CC(=O)NCC1CCCO1)C(=O)C(C(C)C)O2 (configuration not stated) | inactive |
| COc1ccc(-c2coc3c(C(=O)Nc4cccc(C(C)=O)c4)cccc23)c(C)c1 | inactive |
| CCCOCCOC(=O)c1[nH]c2c(c1C)C(=O)CC(c1cc(OC)ccc1OC)C2 (configuration not stated) | inactive |
| COc1cccc(CNc2ccc3c(c2)CCC3)c1 | inactive |
| CCCOc1ccc(C(O)(CCC)CCN2CCCCC2)cc1 (configuration not stated) | inactive |
| O=C(O)/C=C/C(=O)Nc1cccc(C(F)(F)F)c1 | inactive |

| Compound | activity, higher = inhibition |
| --- | --- |
| CC(C)(C)NC(=O)CN(Cc1ccc(F)cc1)C(=O)Cn1nnc(-c2ccc(F)cc2)n1 | inactive |
| CC(C)OCCCNc1ncnc2c1[nH]c1ccc(F)cc12 | inactive |
| CCOc1cccc(C(=O)Nc2ccc3oc(Cc4ccc(Cl)cc4)nc3c2)c1 | inactive |
| Nc1nc(-c2ccc3ccccc3c2)cs1 | inactive |
| CCOC(=O)c1c(C)[nH]c(-c2csc(N)n2)c1C | inactive |
| CC(C)C(c1nnnn1CC1CCCO1)N1CCN(C2CCCC2)CC1 (configuration not stated) | inactive |
| Cc1c(NC(=O)c2cc3ccccc3oc2=O)c(=O)n(-c2ccccc2)n1C | inactive |
| CC1CN(S(=O)(=O)c2cccc(C(=O)N3CCC(C(N)=O)CC3)c2)CC(C)O1 (configuration not stated) | inactive |
| COc1ccc(C(=O)Nc2c(Cl)cc(Cl)cc2C(=O)N2CCOCC2)cc1 | inactive |
| CCN(CC)C(=O)c1cccc(NC(=O)C2=COCCO2)c1 | inactive |
| COc1ccc(CCNC(=O)[C@@H](NC(N)=O)C(C)C)cc1 | inactive |
| Cc1cc(-c2nnc(SCC(=O)c3ccc(Cl)cc3)o2)no1 | inactive |
| COCCN(C(=O)COC(=O)Cc1ccc(Cl)cc1)c1c(N)n(Cc2ccccc2)c(=O)[nH]c1=O | inactive |
| CC1(C)CC(=O)C2=C(C1)Nc1ccccc1N(C(=O)C1CC1)C2c1ccco1 (configuration not stated) | inactive |
| COc1cc(OC)cc(C(=O)NC(C(=O)Nc2ccc3c(c2)OCO3)C(C)C)c1 (configuration not stated) | inactive |
| COc1cc(C(C)=O)ccc1OCC(=O)NCC1(N2CCCCC2)CCCCC1 | inactive |
| O=C(NC1CCCc2ccccc21)c1ccccc1Br (configuration not stated) | inactive |
| CCOC(=O)Nc1ccc(NCc2ccc(F)cc2)nc1N | inactive |
| COc1ccccc1-c1cccc2nccn12 | inactive |
| CN(C)c1ccc(C(O)Cc2nc3ccccc3n2C)cc1 (configuration not stated) | inactive |
| CCOc1ccc(NC(=O)CN(C)C(=O)c2cc(S(=O)(=O)N3CCCCC3)ccc2Cl)cc1OCC | inactive |
| O=C(c1cc(-c2ccncc2)nc2ccccc12)N1CCN(Cc2ccccc2)CC1 | inactive |
| CN(C)C(=O)c1cc(Br)ccc1Cl | inactive |
| C[C@@H]1CN([C@H](C)CO)C(=O)CCCn2cc(nn2)CO[C@H]1CN(C)C(=O)c1ccccc1 | inactive |
| CCN1CCc2c(sc(N)c2C(N)=O)C1 | inactive |
